Columns and labels:
optic nerve = test: Oxygen tension of optic nerve (ONPO2), polarographic electrode in the vitreous humour 0.5 mm over the optic disc of anaesthetised pigs; format: in vivo, Danish agricultural pigs (landrace)
Description: The pig was secured laterally on an operating table and a speculum was placed between the right eyelids. A conjunctival peritomy was performed and 3-0 silk sutures placed under the rectus muscle tendons to immobilise the eye. A sclerotomy was made 2.5 mm behind the limbus in the superonasal quadrant and a cannula placed, through which the polarographic electrode was advanced into the vitreous cavity. The electrode was held in a micromanipulator (Stoelting Inc. USA) and placed in the vitreous humour approximately 0.5 mm over the optic disc in an area not covered by the large vessels. The entire operation was performed using a Zeiss operating microscope and the electrode was placed using an indirect ophthalmoscope or the microscope and a flat corneal contact lens.
A silver-silver chloride reference electrode was placed in the conjunctival sac of the same (right) eye and kept moist with saline. The polarographic oxygen meter consists of a 100 micrometer platinum-iridium electrode inside a 20 gauge needle (Model 761), a silver-silver chloride reference electrode and a chemical microsensor (Model 1251, Diamond Electrotech Inc., Ann Arbor Mich., USA). The recording system was calibrated before and after each experiment in a calibration cell (Diamond Electrotech. Inc.) at 37 degrees Celsius in 0.9% saline using 100% N2, 5.0%02-95%N2 and 20.000%02-80%N2 (provided by AGA Inc. Denmark). The barometric pressure was monitored, and the oxygen tension recordings were adjusted for barometric pressure, and expressed as mmHg.
The experiments were all run with typical indoor illumination (white fluorescent light tubes (Philips TLM 4OW/29RS)). The ambient light intensity at the level of the pig's eye was measured with a Mavolux digital light meter (Gossen GmbH, Germany) and found to be 497 lux or 6 watt per square meter.
Each experiment was begun with the animal breathing 100% oxygen. Once a stable ONPO2 level was obtained the breathing mixture was changed to air, containing 21% oxygen, and a stable level obtained again. In some experiments the breathing mixture was changed to 20.000% O2 followed by 5.19% CO2, 19.9% O2 (N2 to balance), followed by 20.000% O2.
Polarographic oxygen electrodes were placed in the vitreous humour 0.5 mm above the optic disc in anaesthetized pigs. Arterial blood pressure and gasses were monitored and ONPO was recorded continously with various breathing gasses.

[1] = Continuous arterial blood pressure recording in the experimental pigs; format: in vivo, Danish agricultural pigs (landrace); conditions: after intravenous injection of 500 mg (Figure 7)
Description: Danish agricultural pigs (landrace), 25-33 kg in weight and brought up in specific pathogen free environment, were used. Their treatment was supervised by a veterinarian and followed the decrees of the ARVO Statement for the use of animals in ophthalmic and vision research. All experiments were conducted during daytime. The pigs were anaesthetised with midazolam (dormicum®) and ketamine followed by intravenous application of 250 mg mebumal, fentanylum (Haldid®, Jansen Cilag), 0.5 mg an hour, pancuron bromide (Pavulon®, Organon Technica, Sweden) 16 mg an hour, mebumal (Hospital Pharmacies, Denmark) 50 mg per ml as needed and atropine as needed. The right pupil was dilated with 1% tropicamide eye drops (Mydriacyl® and 2.5% phenylephrine eye drops. A arterial line was placed in a femoral artery for continuous measurement of blood pressure and intermittent blood gas analysis. A venous line was placed in a femoral vein for continuous infusion of the anaesthetics and saline as needed. A rectal thermoprobe provided continuous reading of body temperature.
Arterial blood samples were obtained at regular intervals and arterial PO2, pH and PCO2 were measured with a ABL 605 blood gas analyser (Radiometer, Denmark) (table 1). Arterial blood pressure, electrocardiogram and rectal temperature were monitored continuously and it was verified that these values were within normal limits. […]

[2] = intravenous administration; cited from earlier work
[3] = cited from earlier work
[4] = intravenous; cited from earlier work
[5] = oral; blue field entopic technique; cited from earlier work

Molecule | ONPO2 after injection (optic nerve; after 500 mg intravenous injection, anaesthetised pigs, mean ± SD) [mmHg] | ONPO2 before injection (optic nerve; baseline before 500 mg intravenous injection, anaesthetised pigs, mean ± SD) [mmHg] | dose dependence of the effect on ONPO2 (optic nerve; intravenous, dorzolamide effect seen with 6 to 500 mg (Figures 4 and 8)) | raised the optic nerve oxygen tension by (optic nerve; summary over the doses given, anaesthetised pigs, n=4 each, p=0.046 (dorzolamide), p=0.005 (acetazolamide)) | arterial blood pressure [1] | cerebral blood flow [2] | flow velocity in the intracranial arteries ([3]; in vivo) | flow velocity in the ophthalmic artery ([3]; in vivo) | ocular pulsatile blood flow ([3]; mainly originating from the choroidal circulation) | retinal blood flow [4] | macular blood flow [5] | ONPO2 in response to breathing 5.19% CO2 (optic nerve; breathing 5.19% CO2 and 19.9% O2 (N2 to balance), n=4, p<0.001) [mmHg] | ONPO2 before breathing 5.19% CO2 (optic nerve; breathing 20% O2, n=4) [mmHg]
CC(=O)Nc1nnc(S(N)(=O)=O)s1 [acetazolamide] | 30.9± 10.0 | 23.6± 9.5 | dose dependent | 15-35% | transient lowering | increased | increased | decrease | decrease | increased | no effect |  | 
CO2 |  |  |  |  |  |  |  |  |  |  |  | 28.9 ± 3.6 | 20.8 ± 5.6
